Test system: AMPK
Experiment: AMPK activation assay (enzyme-linked immunosorbent assay)
Assay type: cell-based
Summary of the method: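 Compounds were tested for their capacity to activate the kinase using standard, commercially available kit reagents and procedures.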

| Structure (SMILES) | EC50 |
| --- | --- |
| N#Cc1ccc(OC2CCN(C(=O)c3ccc(C(=O)NC4CCN(c5ccc(C#N)cc5)CC4)cn3)CC2)cc1 [Compound 418, 6-(4-(4-cyanophenoxy)piperidine-1-carbonyl)-N-(1-(4-cyanophenyl)piperidin-4-yl)nicotinamide] | < 500 nM |
| N#Cc1ccc(CN2CCC(NC(=O)c3ccc(C(=O)N4CCC(C(=O)c5cccs5)CC4)cn3)CC2)cc1 [Compound 419, N-(1-(4-cyanobenzyl)piperidin-4-yl)-5-(4-(thiophene-2-carbonyl)piperidine-1-carbonyl)picolinamide] | < 500 nM |
| CS(=O)(=O)c1ccc(N2CCC(NC(=O)c3ccc(C(=O)N4CCC(Oc5ccc(C#N)cc5)CC4)nc3)CC2)cc1 [Compound 420, 6-(4-(4-cyanophenoxy)piperidine-1-carbonyl)-N-(1-(4-(methylsulfonyl)phenyl)piperidin-4-yl)nicotinamide] | 1000 to 5000 nM |
| CS(=O)(=O)c1ccc(N2CCC(NC(=O)c3ccc(C(=O)N4CCN(Cc5ccc(F)cc5)CC4)nc3)CC2)cc1 [Compound 421, 6-(4-(4-fluorobenzyl)piperazine-1-carbonyl)-N-(1-(4-(methylsulfonyl)phenyl)piperidin-4-yl)nicotinamide] | 1000 to 5000 nM |
| N#Cc1ccc(OC2CCN(C(=O)c3ccc(C(=O)NC4CCN(c5ccc(F)cc5)CC4)cn3)CC2)cc1 [Compound 422, 6-(4-(4-cyanophenoxy)piperidine-1-carbonyl)-N-(1-(4-fluorophenyl)piperidin-4-yl)nicotinamide] | 1000 to 5000 nM |
| COc1ccc(N2CCC(NC(=O)c3ccc(C(=O)N4CCC(Oc5ccc(C#N)cc5)CC4)nc3)CC2)cc1 [Compound 423, 6-(4-(4-cyanophenoxy)piperidine-1-carbonyl)-N-(1-(4-methoxyphenyl)piperidin-4-yl)nicotinamide] | < 500 nM |
| COc1ccc(C(=O)C2CCN(C(=O)c3ccc(C(=O)NC4CCN(Cc5cccc(OC(F)(F)F)c5)CC4)cn3)CC2)cc1 [Compound 424, 6-(4-(4-methoxybenzoyl)piperidine-1-carbonyl)-N-(1-(3-(trifluoromethoxy)benzyl)piperidin-4-yl)nicotinamide] | < 500 nM |
| COc1ccc(C(=O)C2CCN(C(=O)c3ccc(C(=O)NC4CCN(Cc5cccc(OC)c5)CC4)cn3)CC2)cc1 [Compound 425, 6-(4-(4-methoxybenzoyl)piperidine-1-carbonyl)-N-(1-(3-methoxybenzyl)piperidin-4-yl) nicotinamide] | < 500 nM |
| COc1ccc(C(=O)C2CCN(C(=O)c3ccc(C(=O)N[C@@H]4CCN(Cc5cc(C)on5)C[C@@H]4F)cn3)CC2)cc1 [Compound 426, N-((3S,4R)-3-fluoro-1-((5-methylisoxazol-3-yl)methyl)piperidin-4-yl)-6-(4-(4-methoxybenzoyl)piperidine-1-carbonyl)nicotinamide] | < 500 nM |
| COc1ccc(C(=O)C2CCN(C(=O)c3ccc(C(=O)N[C@@H]4CCN(Cc5csc(C)n5)C[C@@H]4F)cn3)CC2)cc1 [Compound 427, N-((3S,4R)-3-fluoro-1-((2-methylthiazol-4-yl)methyl)piperidin-4-yl)-6-(4-(4-methoxybenzoyl)piperidine-1-carbonyl)nicotinamide] | 1000 to 5000 nM |
| CC(=O)Nc1ccc(OC2CCN(C(=O)c3ccc(C(=O)NC4CCN(Cc5cccc(OC(F)(F)F)c5)CC4)cn3)CC2)cc1 [Compound 428, 6-(4-(4-acetamidophenoxy)piperidine-1-carbonyl)-N-(1-(3-(trifluoromethoxy)benzyl)piperidin-4-yl)nicotinamide] | 500 to 1000 nM |
| CC(=O)Nc1cccc(OC2CCN(C(=O)c3ccc(C(=O)NC4CCN(Cc5cccc(OC(F)(F)F)c5)CC4)cn3)CC2)c1 [Compound 429, 6-(4-(3-acetamidophenoxy)piperidine-1-carbonyl)-N-(1-(3-(trifluoromethoxy)benzyl)piperidin-4-yl)nicotinamide] | 500 to 1000 nM |
| COc1ccc(C(=O)C2CCN(C(=O)c3ccc(C(=O)NC4CCN(Cc5ccc(OC(F)(F)F)cc5)CC4)cn3)CC2)cc1 [Compound 430, 6-(4-(4-methoxybenzoyl)piperidine-1-carbonyl)-N-(1-(4-(trifluoromethoxy)benzyl)piperidin-4-yl)nicotinamide] | < 500 nM |
| N#Cc1ccc(CN2CCC(NC(=O)c3ccc(C(=O)N4CCC(Oc5cccc(NC(=O)C6CC6)c5)CC4)nc3)CC2)cc1 [Compound 431, N-(1-(4-cyanobenzyl)piperidin-4-yl)-6-(4-(3-(cyclopropanecarboxamido)phenoxy)piperidine-1-carbonyl)nicotinamide] | 500 to 1000 nM |
| O=C(NC1CCN(Cc2ccc(F)cc2)CC1)c1ccc(C(=O)N2CCC(Oc3cccc(NC(=O)C4CC4)c3)CC2)nc1 [Compound 432, 6-(4-(3-(cyclopropanecarboxamido)phenoxy)piperidine-1-carbonyl)-N-(1-(4-fluorobenzyl)piperidin-4-yl)nicotinamide] | 500 to 1000 nM |
| O=C(Nc1ccc(Oc2ccc(F)cc2)nc1)c1ccc(C(=O)N2CCC(Oc3cccc(NC(=O)C4CC4)c3)CC2)nc1 [Compound 433, 6-(4-(3-(cyclopropanecarboxamido)phenoxy)piperidine-1-carbonyl)-N-(6-(4-fluorophenoxy)pyridin-3-yl)nicotinamide] | < 500 nM |

| Structure (SMILES) | EC50 |
| --- | --- |
| N#Cc1ccc(O[C@H]2CC[C@@H](NC(=O)c3ccc(C(=O)N4CCC(Oc5cccc(NC(=O)C6CC6)c5)CC4)nc3)CC2)cc1 [Compound 434, N-((cis)-4-(4-cyanophenoxy)cyclohexyl)-6-(4-(3-(cyclopropanecarboxamido)phenoxy)piperidine-1-carbonyl)nicotinamide] | < 500 nM |
| COc1ccc(CN2CCC(NC(=O)c3ccc(C(=O)N4CCC(Oc5cccc(NC(=O)C6CC6)c5)CC4)nc3)CC2)cc1 [Compound 435, 6-(4-(3-(cyclopropanecarboxamido)phenoxy)piperidine-1-carbonyl)-N-(1-(4-methoxybenzyl)piperidin-4-yl)nicotinamide] | < 500 nM |
| N#Cc1ccc(CN2CCC(NC(=O)c3ccc(C(=O)N4CCC(Oc5ccc(SC(F)(F)F)cc5)CC4)nn3)CC2)cc1 [Compound 436, N-(1-(4-cyanobenzyl)piperidin-4-yl)-6-(4-(4-(trifluoromethylthio)phenoxy)piperidine-1-carbonyl)pyridazine-3-carboxamide] | < 500 nM |
| CC(=O)c1ccc(OC2CCN(C(=O)c3ccc(C(=O)NC4CCN(Cc5ccc(C#N)cc5)CC4)nn3)CC2)cc1 [Compound 437, 6-(4-(4-acetylphenoxy)piperidine-1-carbonyl)-N-(1-(4-cyanobenzyl)piperidin-4-yl)pyridazine-3-carboxamide] | < 500 nM |
| O=C(NC1CCN(Cc2ccc(OC(F)(F)F)cc2)CC1)c1ccc(C(=O)N2CCC(Oc3cccc(NC(=O)C4CC4)c3)CC2)nc1 [Compound 438, 6-(4-(3-(cyclopropanecarboxamido)phenoxy)piperidine-1-carbonyl)-N-(1-(4-(trifluoromethoxy)benzyl)piperidin-4-yl)nicotinamide] | < 500 nM |
| COc1ccc(CN2CCC(NC(=O)c3ccc(C(=O)N4CCC(C(=O)c5ccc(N6CCCC6)cc5)CC4)nc3)CC2)cc1 [Compound 439, N-(1-(4-methoxybenzyl)piperidin-4-yl)-6-(4-(4-(pyrrolidin-1-yl)benzoyl)piperidine-1-carbonyl)nicotinamide] | < 500 nM |
| O=C(NC1CCN(Cc2ccc(OC(F)(F)F)cc2)CC1)c1ccc(C(=O)N2CCC(C(=O)c3ccc(N4CCCC4)cc3)CC2)nc1 [Compound 440, 6-(4-(4-(pyrrolidin-1-yl)benzoyl)piperidine-1-carbonyl)-N-(1-(4-(trifluoromethoxy)benzyl)piperidin-4-yl)nicotinamide] | < 500 nM |
| O=C(NC1CCN(Cc2cccc(OC(F)(F)F)c2)CC1)c1ccc(C(=O)N2CCC(C(=O)c3ccc(N4CCCC4)cc3)CC2)nc1 [Compound 441, 6-(4-(4-(pyrrolidin-1-yl)benzoyl)piperidine-1-carbonyl)-N-(1-(3-(trifluoromethoxy)benzyl)piperidin-4-yl)nicotinamide] | < 500 nM |
| N#Cc1ccc(O[C@H]2CC[C@@H](NC(=O)c3ccc(C(=O)N4CCC(C(=O)c5ccc(N6CCCC6)cc5)CC4)nc3)CC2)cc1 [Compound 442, N-((cis)-4-(4-cyanophenoxy)cyclohexyl)-6-(4-(4-(pyrrolidin-1-yl)benzoyl)piperidine-1-carbonyl)nicotinamide] | < 500 nM |
| COc1ccc(CN2CCC(NC(=O)c3ccc(C(=O)N4CCC(C(=O)c5ccc(N6CCCC6)cc5)CC4)nc3)CC2)cc1F [Compound 443, N-(1-(3-fluoro-4-methoxybenzyl)piperidin-4-yl)-6-(4-(4-(pyrrolidin-1-yl)benzoyl)piperidine-1-carbonyl)nicotinamide] | < 500 nM |
| O=C(NC1CCN(Cc2ccc(N3CCCC3)cc2)CC1)c1ccc(C(=O)N2CCC(C(=O)c3ccc(N4CCCC4)cc3)CC2)nc1 [Compound 444, 6-(4-(4-(pyrrolidin-1-yl)benzoyl)piperidine-1-carbonyl)-N-(1-(4-(pyrrolidin-1-yl)benzyl)piperidin-4-yl)nicotinamide] | < 500 nM |
| COc1ccc(C(=O)C2CCN(C(=O)c3ccc(C(=O)NC4CCNCC4)cn3)CC2)cc1 [Compound 445, 6-(4-(4-methoxybenzoyl)piperidine-1-carbonyl)-N-(piperidin-4-yl)nicotinamide] | > 10000 nM |
| CC(C)Oc1ccc(CN2CCC(NC(=O)c3ccc(C(=O)N4CCC(C(=O)c5ccc(N6CCCC6)cc5)CC4)nc3)CC2)cc1 [Compound 446, N-(1-(4-isopropoxybenzyl)piperidin-4-yl)-6-(4-(4-(pyrrolidin-1-yl)benzoyl)piperidine-1-carbonyl)nicotinamide] | < 500 nM |
| N#Cc1ccc(CN2CCC(NC(=O)c3ccc(C(=O)N4CCC(C(=O)c5ccc(N6CCCC6)cc5)CC4)nc3)CC2)cc1F [Compound 447, N-(1-(4-cyano-3-fluorobenzyl)piperidin-4-yl)-6-(4-(4-(pyrrolidin-1-yl)benzoyl)piperidine-1-carbonyl)nicotinamide] | < 500 nM |
| N#Cc1ccc(CN2CCC(NC(=O)c3ccc(C(=O)N4CCC(Oc5ccc(NS(=O)(=O)C6CC6)cc5)CC4)nc3)CC2)cc1 [Compound 448, N-(1-(4-cyanobenzyl)piperidin-4-yl)-6-(4-(4-(cyclopropanesulfonamido)phenoxy)piperidine-1-carbonyl)nicotinamide] | 1000 to 5000 nM |

Reference: US20150087673A1, “METHODS FOR USING AND BIOMARKERS FOR AMPK-ACTIVATING COMPOUNDS” (RIGEL PHARMACEUTICALS, INC., priority 2013, published 2015)
